Source: patent US20240174624A1, “CHIRAL N-(1,3,4-OXADIAZOLE-2-YL)PHENYL CARBOXYLIC ACID AMIDES AND THEIR USE AS HERBICIDES” (Bayer Aktiengesellschaft, priority 2021, published 2024)

How the values were obtained:
[1] = test system: AMARE; test: Post-emergence herbicidal action; type: in vivo, Amaranthus retroflexus; details: assessed after about 3 weeks
Method in brief: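 Greenhouse plants in sandy loam treated at the one-leaf stage, 2–3 weeks after sowing, by spraying WP or EC formulations as aqueous suspension/emulsion at 600–800 l/ha with 0.2% wetting agent. Visual assessment after about 3 weeks versus untreated controls, as percent action (100% = plants dead, 0% = like control).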

[2] = test system: SETVI; test: Pre-emergence herbicidal action; type: in vivo, Setaria viridis; details: scored after 3 weeks
Method in brief: (§1)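 Pre-em, sandy loam, wood-fibre pots. Spray onto cover soil: aq. suspension/emulsion of WP/EC, 600 to 800 l/ha, 0.2% wetting agent. Greenhouse, 3 wk; visual score vs untreated, 0–100%.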

[3] = test system: VERPE; test: Pre-emergence herbicidal action; type: in vivo, Veronica persica; details: scored after 3 weeks
Method in brief: as §1

[4] = test system: ECHCG; test: Post-emergence herbicidal action; type: in vivo, Echinochloa crus-galli
Method in brief: (§2)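 Greenhouse pot test on sandy loam; plants treated at one-leaf stage, 2–3 weeks after sowing, by spraying WP or EC formulations as aqueous suspension/emulsion at 600–800 l/ha water with 0.2% wetting agent. Visual damage scored about 3 weeks later versus untreated controls (100% = dead, 0% = like control).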

[5] = test system: VERPE; test: Post-emergence herbicidal action; type: in vivo, Veronica persica; details: assessed after about 3 weeks
Method in brief: as §2

[6] = test system: BRSNW; test: Pre-emergence damage to crop plants; type: in vivo, Brassica napus; details: 20 g a.i./ha, comparative experiment
Source text: (§3) Seeds of monocotyledonous and dicotyledonous weed plants and crop plants are laid out in sandy loam soil in wood-fibre pots and covered with soil. The compounds of the invention, formulated in the form of wettable powders (WP) or as emulsion concentrates (EC), are then applied to the surface of the covering soil in the form of an aqueous suspension or emulsion at a water application rate equivalent to 600 to 800 l/ha, with addition of 0.2% wetting agent. After the treatment, the pots are placed in a greenhouse and kept under good growth conditions for the trial plants. The damage to the test plants is scored visually after a test period of 3 weeks by comparison with untreated controls (herbicidal activity in percent (%): 100% activity=the plants have died, 0% activity=like control plants). […] The tables below illustrate, in an illustrative manner, the post-emergence herbicidal action of the compounds of the invention, the herbicidal activity being stated in percent. In the experiments that follow, the herbicidal action of the compounds of the invention and that of the corresponding known racemic compounds closest from WO2012126932 and WO2018202535 were compared under the above-specified conditions by the pre-emergence and post-emergence method. The example numbers given in the tables relate to the compounds disclosed in the respective documents.

[7] = test system: MATIN; test: Pre-emergence herbicidal action; type: in vivo, Matricaria inodora; details: scored after 3 weeks
Method in brief: as §1

[8] = test system: ZEAMX; test: Pre-emergence damage to crop plants; type: in vivo, Zea mays; details: 80 g a.i./ha, comparative experiment
Method in brief: as §1

[9] = test system: ECHCG; test: Pre-emergence herbicidal action; type: in vivo, Echinochloa crus-galli; details: scored after 3 weeks
Method in brief: (§4)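 Weed and crop seeds were sown in sandy loam, and WP or EC formulations were sprayed onto the covering soil at 600 to 800 l/ha water with 0.2% wetting agent. After 3 weeks in a greenhouse, damage was scored visually against untreated controls as percent activity (100% = plants dead).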

[10] = test system: AVEFA; test: Pre-emergence herbicidal action; type: in vivo, Avena fatua; details: 80 g/ha, scored after 3 weeks
Method in brief: as §1

[11] = test system: ALOMY; test: Pre-emergence herbicidal action; type: in vivo, Alopecurus myosuroides; details: 80 g/ha, scored after 3 weeks
Method in brief: as §1

[12] = test system: GLXMA; test: Post-emergence damage to crop plants; type: in vivo, Glycine max; details: 5 g a.i./ha, comparative experiment
Description: Seeds of monocotyledonous and dicotyledonous weed and crop plants are laid out in sandy loam soil in wood-fibre pots, covered with soil and cultivated in a greenhouse under good growth conditions. 2 to 3 weeks after sowing, the test plants are treated at the one-leaf stage. The compounds of the invention, formulated in the form of wettable powders (WP) or as emulsion concentrates (EC), are then sprayed onto the green parts of the plants in the form of an aqueous suspension or emulsion at a water application rate equating to 600 to 800 l/ha, with addition of 0.2% wetting agent. After the test plants have been left to stand in the greenhouse under optimal growth conditions for about 3 weeks, the action of the preparations is assessed visually in comparison to untreated controls (herbicidal action in percent (%): 100% activity=the plants have died, 0% activity=like control plants). […] The tables below illustrate, in an illustrative manner, the post-emergence herbicidal action of the compounds of the invention, the herbicidal activity being stated in percent. In the experiments that follow, the herbicidal action of the compounds of the invention and that of the corresponding known racemic compounds closest from WO2012126932 and WO2018202535 were compared under the above-specified conditions by the pre-emergence and post-emergence method. […]

[13] = test system: DIGSA; test: Pre-emergence herbicidal action; type: in vivo, Digitaria sanguinalis; details: scored after 3 weeks
Source text: as §3, with “percent.” for “percent. In the experiments that follow, the herbicidal action of the compounds of the invention and that of the corresponding known racemic compounds closest from WO2012126932 and WO2018202535 were compared under the above-specified conditions by the pre-emergence and post-emergence method. The example numbers given in the tables relate to the compounds disclosed in the respective documents.”

[14] = test system: PHBPU; test: Post-emergence herbicidal action; type: in vivo, Pharbitis purpurea; details: 20 g/ha, assessed after about 3 weeks
Description: Seeds of monocotyledonous and dicotyledonous weed and crop plants are laid out in sandy loam soil in wood-fibre pots, covered with soil and cultivated in a greenhouse under good growth conditions. 2 to 3 weeks after sowing, the test plants are treated at the one-leaf stage. The compounds of the invention, formulated in the form of wettable powders (WP) or as emulsion concentrates (EC), are then sprayed onto the green parts of the plants in the form of an aqueous suspension or emulsion at a water application rate equating to 600 to 800 l/ha, with addition of 0.2% wetting agent. After the test plants have been left to stand in the greenhouse under optimal growth conditions for about 3 weeks, the action of the preparations is assessed visually in comparison to untreated controls (herbicidal action in percent (%): 100% activity=the plants have died, 0% activity=like control plants). […] The tables below illustrate, in an illustrative manner, the post-emergence herbicidal action of the compounds of the invention, the herbicidal activity being stated in percent.

[15] = test system: VIOTR; test: Post-emergence herbicidal action; type: in vivo, Viola tricolor; details: for Herbicidal action against VIOTR: comparative experiment; for Post-emergence action against VIOTR: assessed after about 3 weeks
Description: (§5) Seeds of monocotyledonous and dicotyledonous weed and crop plants are laid out in sandy loam soil in wood-fibre pots, covered with soil and cultivated in a greenhouse under good growth conditions. 2 to 3 weeks after sowing, the test plants are treated at the one-leaf stage. The compounds of the invention, formulated in the form of wettable powders (WP) or as emulsion concentrates (EC), are then sprayed onto the green parts of the plants in the form of an aqueous suspension or emulsion at a water application rate equating to 600 to 800 l/ha, with addition of 0.2% wetting agent. After the test plants have been left to stand in the greenhouse under optimal growth conditions for about 3 weeks, the action of the preparations is assessed visually in comparison to untreated controls (herbicidal action in percent (%): 100% activity=the plants have died, 0% activity=like control plants). […] The tables below illustrate, in an illustrative manner, the post-emergence herbicidal action of the compounds of the invention, the herbicidal activity being stated in percent. In the experiments that follow, the herbicidal action of the compounds of the invention and that of the corresponding known racemic compounds closest from WO2012126932 and WO2018202535 were compared under the above-specified conditions by the pre-emergence and post-emergence method. The example numbers given in the tables relate to the compounds disclosed in the respective documents.

[16] = test system: AMARE; test: Pre-emergence herbicidal action; type: in vivo, Amaranthus retroflexus; details: scored after 3 weeks
Method in brief: as §4

[17] = test system: SETVI; test: Post-emergence herbicidal action; type: in vivo, Setaria viridis; details: for Post-emergence action against SETVI: assessed after about 3 weeks
Method in brief: as §2

[18] = test system: TRZAS; test: Post-emergence damage to crop plants; type: in vivo, Triticum aestiva; details: 5 g a.i./ha, comparative experiment
Method in brief: as §2

[19] = test system: DIGSA; test: Post-emergence herbicidal action; type: in vivo, Digitaria sanguinalis; details: assessed after about 3 weeks
Description: as §5

[20] = test system: VIOTR; test: Pre-emergence herbicidal action; type: in vivo, Viola tricolor; details: scored after 3 weeks
Method in brief: as §4

Cc1nnc(NC(=O)c2ccc(C(F)F)c([S+](C)[O-])c2Cl)o1 (stereo in doubt) [Example I-6, 2-chloro-N-(5-methyl-1,3,4-oxadiazol-2-yl)-3-[(S)-methylsulfinyl]-4-(difluoromethyl)benzamide]
90%: Post-emergence action against AMARE ([1]; 5 g/ha) | Pre-emergence action against SETVI ([2]; 20 g/ha) | Pre-emergence action against VERPE ([3]; 20 g/ha) | Post-emergence action against VERPE ([5]; 5 g/ha) | Post-emergence action against VERPE ([5]; 20 g/ha) | Pre-emergence action against MATIN ([7]; 20 g/ha) | Pre-emergence action against MATIN ([7]; 80 g/ha) | Pre-emergence action against ECHCG ([9]; 20 g/ha) | Post-emergence action against PHBPU [14] | Pre-emergence action against AMARE ([16]; 20 g/ha) | Post-emergence action against DIGSA ([19]; 5 g/ha) | Post-emergence action against DIGSA ([19]; 20 g/ha)
40%: Damage to BRSNW [6] | Damage to GLXMA [12]
20%: Damage to ZEAMX [8] | Damage to TRZAS [18]
80%: Herbicidal action against VIOTR ([15]; 5 g a.i./ha) | Post-emergence action against VIOTR ([15]; 5 g/ha)
100%: Post-emergence action against AMARE ([1]; 20 g/ha) | Pre-emergence action against SETVI ([2]; 80 g/ha) | Pre-emergence action against VERPE ([3]; 80 g/ha) | Herbicidal action against ECHCG ([4]; 20 g a.i./ha, comparative experiment) | Post-emergence action against ECHCG ([4]; 20 g/ha, assessed after about 3 weeks) | Pre-emergence action against ECHCG ([9]; 80 g/ha) | Pre-emergence action against AVEFA [10] | Pre-emergence action against ALOMY [11] | Pre-emergence action against DIGSA ([13]; 20 g/ha) | Pre-emergence action against DIGSA ([13]; 80 g/ha) | Herbicidal action against VIOTR ([15]; 20 g a.i./ha) | Post-emergence action against VIOTR ([15]; 20 g/ha) | Pre-emergence action against AMARE ([16]; 80 g/ha) | Herbicidal action against SETVI ([17]; 5 g a.i./ha, comparative experiment) | Post-emergence action against SETVI ([17]; 5 g/ha) | Post-emergence action against SETVI ([17]; 20 g/ha) | Pre-emergence action against VIOTR ([20]; 20 g/ha) | Pre-emergence action against VIOTR ([20]; 80 g/ha)
